Test results taken from PMC5472631 (2017).

Experiments:
[1] = test system: Pu24T (c-myc G-quadruplex DNA) (DNA, G4) TGAGGGTGGTGAGGGTGGGGAAGG; test: ITC; conditions: 100 mM KCl, 10 mM potassium phosphate; pH 7.0, 25 °C; site 1 of 2
[2] = test system: Pu24T (c-myc G-quadruplex DNA) (DNA, G4) TGAGGGTGGTGAGGGTGGGGAAGG; test: ligand fluorescence titration; conditions: 100 mM KCl, 10 mM potassium phosphate; pH 7.0, 25 °C; site 1 of 2
[3] = test system: Pu24T (c-myc G-quadruplex DNA) (DNA, G4) TGAGGGTGGTGAGGGTGGGGAAGG; test: UV melting at 295 nm; conditions: 100 mM KCl, 10 mM potassium phosphate; pH 7.0; D/N = 2.0; Tm 70.0 to 80.0 °C
[4] = test system: c-kit21up (c-kit G-quadruplex DNA) (DNA, G4) CGGGCGGGCGCGAGGGAGGGG; test: ligand fluorescence titration; conditions: 100 mM KCl, 10 mM potassium phosphate; pH 7.0, 25 °C
[5] = test system: Tel7, d-(T2AG3T)4 (DNA, G4) TTAGGGT; test: ligand fluorescence titration; conditions: 70 mM Na+; 25 °C
[6] = test system: Pu24T (c-myc G-quadruplex DNA) (DNA, G4) TGAGGGTGGTGAGGGTGGGGAAGG; test: NMR solution structure (NOESY, restrained MD); conditions: 298 K; D/N = 2.0; stacks at 5' and 3' G-tetrads

COc1ccc([C@@H]2CC(=O)c3c(O)cc(O[C@@H]4O[C@H](CO[C@@H]5O[C@@H](C)[C@H](O)[C@@H](O)[C@H]5O)[C@@H](O)[C@H](O)[C@H]4O)cc3O2)cc1O
K1 [1]: 7.35×10^5 ± 1.06 M^-1 | Kd1 [2]: 1 µM

C[C@@H]1O[C@@H](OC[C@H]2O[C@@H](Oc3c(-c4ccc(O)c(O)c4)oc4cc(O)cc(O)c4c3=O)[C@H](O)[C@@H](O)[C@@H]2O)[C@H](O)[C@H](O)[C@H]1O
K1 [1]: 7.23 × 10^5 ± 8.60 M-1 | Kd1 [2]: 17.1 µM

O=c1c(-c2ccc(O)cc2)coc2c([C@@H]3O[C@H](CO)[C@@H](O)[C@H](O)[C@H]3O)c(O)ccc12
K1 [1]: 1.10×10^4 ± 7.75 M^-1 | Kd1 [2]: 88.8 µM

O=c1c(-c2ccc(O)cc2)coc2cc(O)ccc12
K1 [1]: 3.34×10^5 ± 1.50 M^-1 | Kd1 [2]: 47 µM

O=c1c(O)c(-c2cc(O)c(O)c(O)c2)oc2cc(O)cc(O)c12
K1 [1]: 1.65×10^5 ± 0 M^-1 | Kd1 [2]: 1.4 µM

O=c1c(O)c(-c2ccc(O)c(O)c2)oc2cc(O)cc(O)c12
K1 [1]: 1.57 × 10^7 ± 2.14 M-1 | ΔTm [3]: 10 °C | Kd1 [4]: 1.12 µM | Kd1 [5]: 2.13 µM | binding [6]: yes

O=c1c(O)c(-c2ccc(O)cc2)oc2cc(O)cc(O)c12
Kd1 [2]: 1.3 µM

O=c1cc(-c2ccc(O)c(O)c2)oc2cc(O)cc(O)c12
Kd1 [2]: 1.5 µM
